Source: patent US11434237B2, “Selective ligands for tau aggregates” (KARIN & STEN MORTSTEDT CBD SOLUTIONS AB, priority 2017, dated 2022)

How the values were obtained:
Aβ aggregates = molecular target: T1, Aβ aggregates (Homo sapiens, UniProt P05067); assay: Compound and antibody 4G8 double staining of AD brain tissue sections; type: binding
T1 construct: compound and antibody double staining of Aβ or tau aggregates; from tissue; host or cells: human AD brain tissue sections (20 μm)
Procedure: (§1) To achieve compound and antibody double staining of Aβ or tau aggregates, tissue sections (20 μm) from human AD brain were fixed in 70% EtOH at 4° C. for 3 min, rehydrated in distilled water and then incubated in PBS for 30 min. Sections were blocked and permeabilized in PBS with 5% normal goat serum and 0.1% triton X-100 (blocking buffer) for 1 h at room temperature (RT). Antibody 4G8 (Biolegend, San Diego, Calif., USA) reactive to Aβ, and AT100 (Thermo Fisher Scientific, Waltham, Mass., USA) directed against tau phosphorylated at […] (3) were diluted 1:500 and 1:1000, respectively, in blocking buffer and added to the sections. After 16 h incubation at 4° C. unbound antibody was removed by washing in PBS with 0.1% triton X-100 (PBS-T) 3×10 min. To visualize antibody binding to Aβ or tau aggregates sections were incubated with goat anti-mouse secondary antibody labelled with Alexa 647 (Thermo Fisher Scientific). The antibody was diluted 1:200 in blocking buffer and after 1 h incubation at RT sections were washed in PBS 3×10 min. Example Compound 3a, Example Compound 3b, Example Compound 3c, Example Compound 3d, Example Compound 3e, Example Compound 3f, Example Compound 3g, Example Compound 3h, Example Compound 3i, Example Compound 3j, Example Compound 3k, Example Compound 3m, Example Compound 3n, Example Compound 3o, Example Compound 3p, Example Compound 3q, Example Compound 3r, Example Compound 3s, Example Compound 3t, Example Compound 3u, Example Compound 8a, Comparative Example 1, Comparative Example 2, Comparative Example 3 and Comparative Example 4 were dissolved in DMSO to a concentration of 1.5 mM and then further diluted in PBS to a final concentration of 100 nM compound prior to staining. The tissue sections were then stained for 30 min at RT with these freshly prepared solutions containing 100 nM of the respective compound in PBS. After three washes in PBS the sections were mounted in Dako mounting medium for fluorescence (Dako Cytomation, Glostrup, Denmark) and allowed to dry overnight before analysis. Fluorescence images were collected using an inverted LSM 780 confocal microscope (Carl Zeiss, Oberkochen, Germany) with the following excitation/emission wavelengths optimized for each compound: 458/484-600 (Comparative Example 1, Comparative Example 3), 561/569-648 (Example Compound 3a, Example Compound 3b, Example Compound 3c, Example Compound 3d, Example Compound 3e, Example Compound 3f, Example Compound 3g, Example Compound 3h, Example Compound 3i, Example Compound 3j, Example Compound 3k, Example Compound 3m, Example Compound 3n, Example Compound 3o, Example Compound 3p, Example Compound 3q, Example Compound 3r, Example Compound 3s, Example Compound 3t, Example Compound 3u, Example Compound 8a, Comparative Example 2 and Comparative Example 4) and 633/638-755 (Alexa 647). To visualize autofluorescent lipofuscin excitation/emission wavelengths 405/410-480 or 405/410-514 were used.

tau aggregates [1] = molecular target: T2, tau aggregates (Homo sapiens, UniProt P10636); assay: Compound and antibody AT100 double staining of AD brain tissue sections; type: binding
T2 construct: tissue sections (20 μm) from human AD brain; from tissue; host or cells: human AD brain tissue sections (20 μm)
Procedure: as §1

[2] = Excitation and emission spectra of compounds in DMSO or PBS; type: physicochemical; conditions: 300 nM in DMSO or PBS pH 7.4
Procedure: Stock solutions of Example Compound 3a, Example Compound 3b, Example Compound 3c, Example Compound 3d and Example Compound 8a (1.5 mM in DMSO) were diluted to 300 nM in phosphate buffered saline (PBS, 10 mM phosphate, 140 mM NaCl, 2.7 mM KCl, pH 7.4) or DMSO. Excitation and emission spectra of the compounds were collected using an Infinite M1000 Pro microplate reader (Tecan, Männedorf, Switzerland).

Aβ and tau deposits [3] = assay: Staining of AD brain sections with PBB3 alone; type: binding, human; conditions: 100 nM PBB3 alone in PBS pH 7.4, FIG. 6A
Procedure: Frozen brain sections (20 μm) were fixed in 96% EtOH, rehydrated in 50% EtOH and de-ionized water and then incubated in phosphate buffered saline (PBS, 10 mM phosphate, 140 mM NaCl, 2.7 mM KCl, pH 7.4) for 10 min. The sections were stained with solutions containing 100 nM PBB3 in PBS for 30 min and after rinsing three times with PBS mounted with Dako fluorescent mounting medium (Dako Cytomation, Glostrup, Denmark). The mounting medium was allowed to solidify over night before collecting emission spectra of the compound bound to misfolded Aβ and tau using an inverted LSM 780 confocal microscope (Carl Zeiss, Oberkochen, Germany) with excitation wavelengths at 405 nm (PBB3).

Aβ and tau deposits [4] = assay: Co-staining of AD brain sections with PBB3 and Example Compound 3b; type: binding, human; conditions: simultaneous 100 nM PBB3 and 100 nM Example Compound 3b
Procedure: Frozen brain sections (20 μm) were fixed in 96% EtOH, rehydrated in 50% EtOH and de-ionized water and then incubated in phosphate buffered saline (PBS, 10 mM phosphate, 140 mM NaCl, 2.7 mM KCl, pH 7.4) for 10 min. Solutions containing 100 nM PBB3 and 100 nM Example Compound 3b or 100 nM q-FTAA-CN and 100 nM Example Compound 3a in PBS were added to the sections. After 30 min, the sections were washed with PBS and mounted with Dako fluorescent mounting medium (Dako Cytomation, Glostrup, Denmark). The mounting medium was allowed to solidify over night before collecting emission spectra of the compounds bound to misfolded A ? and tau using an inverted LSM 780 confocal microscope (Carl Zeiss, Oberkochen, Germany) with excitation wavelengths at 405 nm (PBB3 and q-FTAA-CN) and 561 nm (Example Compound 3a and Example Compound 3b).

tau aggregates [5] = molecular target: T2, tau aggregates; assay: Example Compound 3b staining of AD brain sections pre-incubated with PBB3 or PBS; type: binding; conditions: FIG. 7F, pre-incubated with 1 μM PBB3, then 10 nM Example Compound 3b
Procedure: Frozen brain sections (20 μm) were fixed in 96% EtOH, rehydrated in 50% EtOH and de-ionized water and then incubated in phosphate buffered saline (PBS, 10 mM phosphate, 140 mM NaCl, 2.7 mM KCl, pH 7.4) for 10 min. The sections were stained with solutions containing 1 ? M PBB3 or 1 ? M q-FTAA-CN in PBS for 30 min and after rinsing three times with PBS, the sections was stained with a solution containing 10 nM Example Compound 3b. After 30 min, the sections were washed with PBS and mounted with Dako fluorescent mounting medium (Dako Cytomation, Glostrup, Denmark). The mounting medium was allowed to solidify over night before collecting emission spectra of the compounds bound to misfolded Aβ and tau using an inverted LSM 780 confocal microscope (Carl Zeiss, Oberkochen, Germany) with excitation wavelengths at 405 nm (PBB3 and q-FTAA-CN) and 561 nm (Example Compound 3b).

T2 sequence (P10636 1-441 isoform P10636-8): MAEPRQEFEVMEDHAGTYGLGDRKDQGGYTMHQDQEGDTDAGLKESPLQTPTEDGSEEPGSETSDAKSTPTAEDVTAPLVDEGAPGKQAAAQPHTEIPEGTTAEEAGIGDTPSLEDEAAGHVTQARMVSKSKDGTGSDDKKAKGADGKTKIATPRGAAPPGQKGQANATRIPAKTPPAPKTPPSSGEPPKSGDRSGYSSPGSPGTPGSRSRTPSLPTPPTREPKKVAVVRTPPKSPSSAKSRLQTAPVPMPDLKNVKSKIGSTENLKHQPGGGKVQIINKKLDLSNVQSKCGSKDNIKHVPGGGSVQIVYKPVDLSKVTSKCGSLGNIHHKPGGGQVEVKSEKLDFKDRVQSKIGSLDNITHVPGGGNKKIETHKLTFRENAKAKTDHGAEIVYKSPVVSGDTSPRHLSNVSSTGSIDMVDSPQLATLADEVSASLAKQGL
T1 sequence (P05067 672-713 limits assumed): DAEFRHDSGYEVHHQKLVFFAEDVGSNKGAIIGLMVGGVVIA

Structure (SMILES) | Overlap between Fluorescence from tested compound and fluorescence from 4G8 observed (Aβ aggregates; 100 nM compound, human AD brain tissue sections, Aβ antibody 4G8) | Fluorescence from tested compound observed (Aβ aggregates; 100 nM compound, human AD brain tissue sections, double staining with Aβ antibody 4G8) | Fluorescence from 4G8 observed (Aβ aggregates; signal of Aβ antibody 4G8 in the section stained with 100 nM of the compound) | Labelling of immune-positive NFTs and dystrophic neurites (tau aggregates [1]; 100 nM compound, AT100 co-staining, AD brain sections) | Fluorescence from tested compound observed (tau aggregates [1]; 100 nM compound, human AD brain tissue sections, double staining with tau antibody AT-100) | Overlap between Fluorescence from tested compound and fluorescence from AT-100 observed (tau aggregates [1]; 100 nM compound, human AD brain tissue sections, tau antibody AT-100) | Fluorescence from AT-100 observed (tau aggregates [1]; signal of tau antibody AT-100 in the section stained with 100 nM of the compound) | Excitation and emission spectra when switching solvent from DMSO to PBS [2] | Deposits labelled (Aβ and tau deposits [3]) | Fluorescence from PBB3 observed (Aβ and tau deposits [4]; FIG. 7E) | Deposits labelled (Aβ and tau deposits [4]) | Fluorescence from PBB3 observed (tau aggregates [5])
COC(=O)c1ccc(-c2ccc(/C=C/c3nc4ccccc4s3)s2)s1 [Example Compound 8a] | no correlation and no | yes | yes | labelled both immune-positive NFTs and dystrophic neurites | yes | yes | yes | solvatochromatic behavior rendering a blue-shifted excitation spectrum, as well as a red-shifted emission spectrum | – | – | – | –
CNc1ccc(/C=C/C=C/c2nc3ccc(O)cc3s2)cn1 [PBB3, reference compound] | – | – | – | – | – | – | – | – | labelled both Aβ and tau deposits | yes | Aβ deposits were visualized by the fluorescence from PBB3 | both the Aβ and tau deposits exhibited strong PBB3 fluorescence and yes
